How the values were obtained:
[1] = target: Lysine-specific histone demethylase 1A (Homo sapiens) (UniProt O60341); assay: Activation of human recombinant LSD1 at 10 uM after 30 mins to 4 hrs by fluorescence assay relative to control
[2] = target: T1, Amine oxidase [flavin-containing] A (Homo sapiens, UniProt P21397)
T1 sequence (P21397 whole entry): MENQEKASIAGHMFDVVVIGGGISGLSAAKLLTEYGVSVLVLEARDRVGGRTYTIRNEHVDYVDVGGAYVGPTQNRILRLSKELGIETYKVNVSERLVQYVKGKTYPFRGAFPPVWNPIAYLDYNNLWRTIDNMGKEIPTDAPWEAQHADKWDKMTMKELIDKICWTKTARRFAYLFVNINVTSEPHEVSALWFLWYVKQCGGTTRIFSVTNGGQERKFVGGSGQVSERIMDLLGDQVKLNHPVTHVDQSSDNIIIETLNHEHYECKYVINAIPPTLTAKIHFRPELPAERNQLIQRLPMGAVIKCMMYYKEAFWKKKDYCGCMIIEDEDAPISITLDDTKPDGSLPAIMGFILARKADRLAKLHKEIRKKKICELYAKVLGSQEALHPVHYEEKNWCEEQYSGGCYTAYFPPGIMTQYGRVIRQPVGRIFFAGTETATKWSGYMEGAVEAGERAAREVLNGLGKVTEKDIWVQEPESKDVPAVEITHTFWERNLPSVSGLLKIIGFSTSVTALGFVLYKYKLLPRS
Description: Inhibition of MAO-A (unknown origin) by MAo-Glo kit analysis

[3] = target: T2, Amine oxidase [flavin-containing] B (Homo sapiens, UniProt P27338)
T2 sequence (P27338 whole entry): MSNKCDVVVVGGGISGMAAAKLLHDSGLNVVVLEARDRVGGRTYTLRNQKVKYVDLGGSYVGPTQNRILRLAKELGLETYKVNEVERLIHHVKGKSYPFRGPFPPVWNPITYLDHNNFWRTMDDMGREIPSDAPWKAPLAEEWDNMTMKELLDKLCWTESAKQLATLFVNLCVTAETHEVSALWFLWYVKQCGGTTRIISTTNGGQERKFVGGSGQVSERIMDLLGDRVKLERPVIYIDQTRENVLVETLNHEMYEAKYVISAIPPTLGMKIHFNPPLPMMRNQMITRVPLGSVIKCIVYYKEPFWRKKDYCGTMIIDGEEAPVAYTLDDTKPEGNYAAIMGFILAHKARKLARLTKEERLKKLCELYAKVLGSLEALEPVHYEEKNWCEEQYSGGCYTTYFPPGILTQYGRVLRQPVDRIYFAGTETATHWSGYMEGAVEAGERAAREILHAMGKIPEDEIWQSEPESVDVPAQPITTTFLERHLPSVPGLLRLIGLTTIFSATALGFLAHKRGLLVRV
Description: Inhibition of MAO-B (unknown origin) by MAo-Glo kit analysis

## O=C(NCCCNCCCCCCNCCCNC(=O)NCc1ccccc1)NCc1ccccc1
[1]
  Activity: 110%

## CCNC(=O)NCCCNCCCCCCNCCCNC(=O)NCC
[1]
  Activity: 119%

## O=C(NCCCNCCCCCNCCCNC(=O)Nc1ccccc1)Nc1ccccc1
[1]
  Activity: 163%

## N=C(NCCCNCCCCCCCNCCCNC(=N)NC(=N)NCCC(c1ccccc1)c1ccccc1)NC(=N)NCCC(c1ccccc1)c1ccccc1
[2]
  IC50: 37 µM
[3]
  IC50: 10 µM

## CCCNC(=O)NCCCNCCCCCCNCCCNC(=O)NCCC
[1]
  Activity: 119%

Source: ChEMBL document CHEMBL3400002, “Structure-activity study for (bis)ureidopropyl- and (bis)thioureidopropyldiamine LSD1 inhibitors with 3-5-3 and 3-6-3 carbon backbone architectures” (Bioorg Med Chem, 2015)
